Results as given in patent publication US7998950B2, “Antiviral compounds” (Gilead Sciences, Inc., priority 2008, dated 2011).

test system: HIV-IIIb; assay: Antiviral assay in MT-2 cells infected with HIV-IIIb; assay type: cell-based; conditions: Human immunodeficiency virus 1, IIIB, MT2, 120 h, MT-2 cells infected with HIV-IIIb, m.o.i. 0.01, 10% FBS, 5 days at 37° C., CellTiter-Glo chemiluminescence; read-out: EC50 in MT-2 cells

Row | EC50 | Structure (SMILES)
1 | 3 nM | CCNC(=O)C1=Cn2c(=O)c(C(=O)NCCOC)c(O)c3ncc(Cc4ccc(F)cc4)c(c32)O1 [Example 104]
2 | 71 nM | CCN(CC)C(=O)C1=Cn2c(=O)c(C(=O)NCCOC)c(O)c3ncc(Cc4ccc(F)cc4)c(c32)O1 [Example 105]
3 | 6 nM | COCCNC(=O)c1c(O)c2ncc(Cc3ccc(F)cc3)c3c2n(c1=O)C=C(C(=O)NCC1(O)CC1)O3 [Example 106]
4 | 25 nM | CNC(=O)c1c(O)c2ncc(Cc3ccc(F)cc3)c3c2n(c1=O)C=C(C(=O)N1CCOCC1(C)C)O3 [Example 107]
5 | 7.5 nM | COCCNC(=O)c1c(O)c2ncc(Cc3ccc(F)cc3)c3c2n(c1=O)C=C(C(=O)N1CCOCC1(C)C)O3 [Example 108]
6 | 37.5 nM | COCCNC(=O)c1c(O)c2ncc(Cc3ccc(F)cc3)c3c2n(c1=O)C=C(C(=O)NCCN1CCCC1)O3 [Example 109]
7 | 27.4 nM | COCCNC(=O)c1c(O)c2ncc(Cc3ccc(F)cc3)c3c2n(c1=O)C=C(C(=O)N1CCN(CC(F)(F)F)CC1)O3 [Example 110]
8 | 11.7 nM | CCNC(=O)C1=Cn2c(=O)c(C(=O)NCCC#N)c(O)c3ncc(Cc4ccc(F)cc4)c(c32)O1 [Example 112]
9 | 5.3 nM | CNC(=O)c1c(O)c2ncc(Cc3ccc(F)cc3)c3c2n(c1=O)C=C(C(=O)NCCOC)O3 [Example 113]
10 | 6.4 nM | COCCNC(=O)C1=Cn2c(=O)c(C(=O)NCCOC)c(O)c3ncc(Cc4ccc(F)cc4)c(c32)O1 [Example 114]
11 | 3.9 nM | CNC(=O)c1c(O)c2ncc(Cc3ccc(F)cc3)c3c2n(c1=O)C=C(C(=O)NCC(F)(F)F)O3 [Example 115]
12 | 2.5 nM | [2H]C([2H])([2H])NC(=O)c1c(O)c2ncc(Cc3ccc(F)cc3)c3c2n(c1=O)C=C(C(=O)NCC)O3 [Example 116]
13 | 14 nM | CNC(=O)c1c(O)c2ncc(Cc3ccc(F)cc3)c3c2n(c1=O)C=C(C(=O)NCC(C)(C)N1CCOCC1)O3 [Example 117]
14 | 0.7 nM | CNC(=O)c1c(O)c2ncc(Cc3ccc(F)c(Cl)c3)c3c2n(c1=O)C=C(C(=O)NCC(C)(C)C#N)O3 [Example 118]
15 | 2.4 nM | CNC(=O)c1c(O)c2ncc(Cc3ccc(F)cc3)c3c2n(c1=O)C=C(C(=O)NCC(C)(C)N(C)C)O3 [Example 119]
16 | 19 nM | CNC(=O)c1c(O)c2ncc(Cc3ccc(F)cc3)c3c2n(c1=O)C=C(C(=O)NC(C)(C)CNC(=O)OC(C)(C)C)O3 [Example 120]
17 | 5.8 nM | CNC(=O)c1c(O)c2ncc(Cc3ccc(F)cc3)c3c2n(c1=O)C=C(C(=O)NC(C)(C)CN)O3 [Example 121]
18 | 64 nM | CNC(=O)c1c(O)c2ncc(Cc3ccc(F)cc3)c3c2n(c1=O)C=C(C(=O)NCC(C)(C)NC(=O)c1nnc(C)o1)O3 [Example 122]
19 | 35 nM | CNC(=O)c1c(O)c2ncc(Cc3ccc(F)cc3)c3c2n(c1=O)C=C(C(=O)NCC(C)(C)N)O3 [Example 123]
20 | 3.3 nM | CNC(=O)c1c(O)c2ncc(Cc3ccc(F)cc3)c3c2n(c1=O)C=C(C(=O)NC(C)(C)CO)O3 [Example 126]
21 | 5 nM | COCCNC(=O)c1c(O)c2ncc(Cc3ccc(F)cc3)c3c2n(c1=O)C=C(C(=O)NC(C)(C)CO)O3 [Example 127]
22 | 7.1 nM | CC(C)(CO)NC(=O)C1=Cn2c(=O)c(C(=O)NC3CC3)c(O)c3ncc(Cc4ccc(F)cc4)c(c32)O1 [Example 128]

Row | EC50 | Structure (SMILES)
23 | 13.9 nM | CNC(=O)c1c(O)c2ncc(Cc3ccc(F)cc3)c3c2n(c1=O)C=C(C(=O)N1CCCCC1)O3 [Example 131]
24 | 37.4 nM | N#CCCNC(=O)c1c(O)c2ncc(Cc3ccc(F)cc3)c3c2n(c1=O)C=C(C(=O)N1CCCCC1)O3 [Example 132]
25 | 7 nM | CNC(=O)c1c(O)c2ncc(Cc3ccc(F)cc3)c3c2n(c1=O)C=C(C(=O)NCC1(O)CC1)O3 [Example 133]
26 | 2.5 nM | CNC(=O)c1c(O)c2ncc(Cc3ccc(F)cc3)c3c2n(c1=O)C=C(C(=O)NCC(C)(C)C#N)O3 [Example 134]
27 | 2.7 nM | CC(C)(C#N)CNC(=O)C1=Cn2c(=O)c(C(=O)NC3CC3)c(O)c3ncc(Cc4ccc(F)cc4)c(c32)O1 [Example 135]
28 | 7.2 nM | CNC(=O)c1c(O)c2ncc(Cc3ccc(F)cc3)c3c2n(c1=O)C=C(C(=O)NC(C)(C)C)O3 [Example 136]
29 | 1.5 nM | CNC(=O)c1c(O)c2ncc(Cc3ccc(F)cc3)c3c2n(c1=O)C=C(C(=O)NCC1(C#N)CC1)O3 [Example 138]
30 | 2.4 nM | CC(C)(C)NC(=O)C1=Cn2c(=O)c(C(=O)NCCO)c(O)c3ncc(Cc4ccc(F)cc4)c(c32)O1 [Example 139]
31 | 3.5 nM | CNC(=O)c1c(O)c2ncc(Cc3ccc(F)cc3)c3c2n(c1=O)C=C(C(=O)NCC(C)(C)O)O3 [Example 140]
32 | 3.7 nM | CNC(=O)c1c(O)c2ncc(Cc3ccc(F)cc3)c3c2n(c1=O)C=C(C(=O)NCCOC(F)(F)F)O3 [Example 141]
33 | 1.9 nM | CNC(=O)c1c(O)c2ncc(Cc3ccc(F)cc3)c3c2n(c1=O)C=C(C(=O)NCC1(O)CCCCC1)O3 [Example 142]
34 | 4 nM | N#CCNC(=O)c1c(O)c2ncc(Cc3ccc(F)cc3)c3c2n(c1=O)CC(F)(F)CN3 [Example 143]
35 | 20 nM | O=C(NCCN1CCNS1(=O)=O)c1c(O)c2ncc(Cc3ccc(F)cc3)c3c2n(c1=O)CC(F)(F)CN3 [Example 144]
36 | 9 nM | CC(C)(CO)CNC(=O)c1c(O)c2ncc(Cc3ccc(F)cc3)c3c2n(c1=O)CC(F)(F)CN3 [Example 145]
37 | 5.5 nM | O=C(NCCc1ncc[nH]1)c1c(O)c2ncc(Cc3ccc(F)cc3)c3c2n(c1=O)CC(F)(F)CN3 [Example 146]
38 | 45.6 nM | Cn1cnnc1CCNC(=O)c1c(O)c2ncc(Cc3ccc(F)cc3)c3c2n(c1=O)CC(F)(F)CN3 [Example 148]
39 | 5 nM | O=C(NCC(F)(F)CO)c1c(O)c2ncc(Cc3ccc(F)cc3)c3c2n(c1=O)CC(F)(F)CN3 [Example 149]
40 | 6 nM | O=C(NCC1(CO)CCC1)c1c(O)c2ncc(Cc3ccc(F)cc3)c3c2n(c1=O)CC(F)(F)CN3 [Example 150]
41 | 23 nM | O=C(NCCCN1CCCC1)c1c(O)c2ncc(Cc3ccc(F)cc3)c3c2n(c1=O)CC(F)(F)CN3 [Example 151]
42 | 7 nM | O=C(NCC1(CO)CC1)c1c(O)c2ncc(Cc3ccc(F)cc3)c3c2n(c1=O)CC(F)(F)CN3 [Example 152]
43 | 12 nM | O=C(NCCCN1CCOCC1)c1c(O)c2ncc(Cc3ccc(F)cc3)c3c2n(c1=O)CC(F)(F)CN3 [Example 153]
44 | 6 nM | CC(C)(C#N)CNC(=O)c1c(O)c2ncc(Cc3ccc(F)cc3)c3c2n(c1=O)CC(F)(F)CN3 [Example 154]

Row | EC50 | Structure (SMILES)
45 | 34 nM | O=C(NCCN1CCCC1)c1c(O)c2ncc(Cc3ccc(F)cc3)c3c2n(c1=O)CC(F)(F)CN3 [Example 156]
46 | 8.2 nM | C[C@@H]1CCCN1CCCNC(=O)c1c(O)c2ncc(Cc3ccc(F)cc3)c3c2n(c1=O)CC(F)(F)CN3 [Example 158]
47 | 4.2 nM | O=C(NCCCN1CCCC1=O)c1c(O)c2ncc(Cc3ccc(F)cc3)c3c2n(c1=O)CC(F)(F)CN3 [Example 161]
48 | 4.6 nM | O=C(NCCN1CCCS1(=O)=O)c1c(O)c2ncc(Cc3ccc(F)cc3)c3c2n(c1=O)CC(F)(F)CN3 [Example 162]
49 | 18.5 nM | CNC(=O)c1c(O)c2ncc(Cc3ccc(F)cc3)c3c2n(c1=O)CC(F)(F)CN3C [Example 163]
50 | 37 nM | CNC(=O)[C@@H]1Cn2c(=O)c(C(=O)NCCOC)c(O)c3ncc(Cc4ccc(F)cc4)c(c32)O1 [Example 164]
51 | 8 nM | CCNC(=O)c1c(O)c2ncc(Cc3ccc(F)cc3)c3c2n(c1=O)C[C@@H](C(=O)NC)O3 [Example 165]
52 | 9 nM | CNC(=O)[C@@H]1Cn2c(=O)c(C(=O)NCCCO)c(O)c3ncc(Cc4ccc(F)cc4)c(c32)O1 [Example 166]
53 | 25.6 nM | CNC(=O)[C@@H]1Cn2c(=O)c(C(N)=O)c(O)c3ncc(Cc4ccc(F)cc4)c(c32)O1 [Example 167]
54 | 12 nM | CNC(=O)c1c(O)c2ncc(Cc3ccc(F)cc3)c3c2n(c1=O)C[C@@H](C(N)=O)O3 [Example 168]
55 | 2.6 nM | CNC(=O)c1c(O)c2ncc(Cc3ccc(F)cc3)c3c2n(c1=O)C[C@@H](C(=O)NCC(C)(C)O)O3 [Example 174]
56 | 2.4 nM | CNC(=O)c1c(O)c2ncc(Cc3ccc(F)cc3)c3c2n(c1=O)C[C@@H](C(=O)NCC(C)(C)C#N)O3 [Example 175]
57 | 23.2 nM | CNC(=O)[C@@H]1Cn2c(=O)c(C(=O)NCCO)c(O)c3ncc(Cc4ccc(F)cc4)c(c32)O1 [Example 176]
58 | 1.2 nM | CNC(=O)c1c(O)c2ncc(Cc3ccc(F)c(Cl)c3)c3c2n(c1=O)C[C@@H](C(=O)NC)O3 [Example 177]
59 | 1.2 nM | CNC(=O)c1c(O)c2ncc(Cc3ccc(F)cc3)c3c2n(c1=O)C[C@@H](CC#N)O3 [Example 181]
60 | 1.8 nM | CNC(=O)c1c(O)c2ncc(Cc3ccc(F)cc3)c3c2n(c1=O)C[C@@H](Cn1ccnc1)O3 [Example 183]
61 | 32 nM | CNC[C@H]1Cn2c(=O)c(C(=O)NC)c(O)c3ncc(Cc4ccc(F)cc4)c(c32)O1 [Example 197]
62 | 3 nM | CNC(=O)c1c(O)c2ncc(Cc3ccc(F)cc3)c3c2n(c1=O)C[C@H](CC#N)O3 [Example 198]
63 | 6.7 nM | CNC(=O)C(=O)NC[C@@H]1Cn2c(=O)c(C(=O)NC)c(O)c3ncc(Cc4ccc(F)cc4)c(c32)O1 [Example 199]
64 | 1.1 nM | CNC(=O)c1c(O)c2ncc(Cc3ccc(F)cc3)c3c2n(c1=O)C[C@@H](CNC(C)=O)O3 [Example 200]

same assay, conditions: Human immunodeficiency virus 1, IIIB, MT2, 120 h, read-out: EC50 in MT-2 cells (nM)

Row | Structure (SMILES) | EC50
65 | CNC(=O)c1c(O)c2ncc(Cc3ccc(F)cc3)c3c2n(c1=O)C=C(C1=NC(C)(C)CO1)O3 [Example 129] | 2.2 nM
66 | CNC(=O)c1c(O)c2ncc(Cc3ccc(F)cc3)c3c2n(c1=O)C=C(c1nnc(C)o1)O3 [Example 130] | 4.6 nM
67 | CNC(=O)c1c(O)c2ncc(Cc3ccc(F)cc3)c3c2n(c1=O)C=C(COC)O3 [Example 137] | 5 nM

same assay, conditions: MT-2 cells infected with HIV-IIIb, m.o.i. 0.01, 10% FBS, 5 days at 37° C., CellTiter-Glo chemiluminescence; listed as A-177; read-out: EC50 in MT-2 cells

Row | EC50 | Structure (SMILES)
68 | 5.5 nM | CCN(CC)C(=O)C1=Cn2c(=O)c(C(=O)NC)c(O)c3ncc(Cc4ccc(F)cc4)c(c32)O1 [Example 125]
